US5700776A, “Medicaments comprising glicentin as active ingredient” (Nisshin Flour Milling Co., Ltd., priority 1992, dated 1997)

Key:
[1] = system: male MALB/c mice; assay: Intraperitoneal administration to mice, observation of appearance; assay type: in vivo; settings: 10 mg/kg intraperitoneally, male MALB/c mice (6 weeks age)
[2] = system: arginine loaded dogs; assay: Infusion of glicentin and glucagon into the pancreatic artery of arginine loaded dogs; plasma hormones and blood glucose; assay type: in vivo, dog; settings: glicentin 100 pmol or 400 pmol infused into pancreatic artery for 10 minutes
Method: Healthy mongrel dogs weighing 13 to 17 kg were subjected to the test after an overnight fast (A. Ohneda et al., Horm. Metab. Res., 9, 447-452 (1977)).
The animals were anesthetized with sodium pentobarbital (Nembutal®) and their abdomens were opened. […] After the operation was completed, saline solution containing 0.5% arginine was infused into the pancreatic artery at a constant rate of 2 ml/min through the cannula using an infusion pump. […] 4 ml portions of blood samples for hormone assay were collected at various intervals into a glass tube containing 1000 KIU aprotinine and 10 mg EDTA.
The plasma insulin was measured in accordance with a known method mentioned in C.
The blood glucose was measured for blood drawn from the femoral artery by the glucose oxidase method using a test kit for the determination of blood glucose (available from Wako Pure Chemical Industries, Japan under the trade name of "Glucose B-Test Wako").

## human glicentin (natural type): peptide of 69 amino acid residues, SEQ ID NO:2, produced by genetic engineering in E. coli
[1]
  change in appearance: no change in appearance
[2]; anesthetized dogs under 0.5% arginine infusion
  insulin secretion (plasma insulin, IRI): stimulates insulin secretion
[2]; antiserum G 21
  glucagon level (IRG(G 21)): not increased
[2]; blood from femoral artery, glucose oxidase method
  blood glucose levels: no change in blood glucose levels
